ChEMBL document CHEMBL1158467, “In vitro intrinsic clearance-based optimization of N3-phenylpyrazinones as corticotropin-releasing factor-1 (CRF1) receptor antagonists” (J Med Chem, 2009)

Key:
[1] = Intrinsic clearance in human liver microsomes at 1 uM; type: ADME, Microsome
[2] = molecular target: T1, Corticotropin-releasing factor receptor 1 (Rattus norvegicus, UniProt P35353); assay: Displacement of [125I]ovine-CRF from CRF1 receptor in rat frontal cortex by rapid filtration technique; type: tissue-based
T1 sequence (P35353 whole entry): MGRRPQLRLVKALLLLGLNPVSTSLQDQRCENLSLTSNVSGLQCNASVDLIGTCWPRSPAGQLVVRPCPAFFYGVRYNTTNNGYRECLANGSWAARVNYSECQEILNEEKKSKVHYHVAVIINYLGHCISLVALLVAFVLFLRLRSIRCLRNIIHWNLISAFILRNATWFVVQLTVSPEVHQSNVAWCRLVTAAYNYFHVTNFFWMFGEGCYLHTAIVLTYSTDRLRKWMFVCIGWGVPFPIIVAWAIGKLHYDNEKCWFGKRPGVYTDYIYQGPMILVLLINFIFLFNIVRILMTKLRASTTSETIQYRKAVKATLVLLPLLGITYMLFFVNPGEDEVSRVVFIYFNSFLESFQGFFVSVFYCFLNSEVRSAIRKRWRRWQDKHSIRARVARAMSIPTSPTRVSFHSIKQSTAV

[3] = tested on: Rattus norvegicus; assay: Anxiolytic activity in Sprague-Dawley rat at 10 mg/kg, po assessed as decrease in exit latency after 60 mins by defensive withdrawal test relative to control; type: functional; design: scale not given: the % may be the effect or the level left
[4] = molecular target: Corticotropin releasing hormone receptor 2 (Sus scrofa, UniProt B8Q4Z9); assay: Displacement of [125I]sauvagine from CRF2 receptor in pig choroid plexus by rapid filtration technique; type: tissue-based
[5] = Fraction unbound in Sprague-Dawley rat plasma at 10 mg/kg, po after 3 hrs by equilibrium dialysis; type: ADME, organism-based; design: dose 10 mg/kg, route oral
[6] = tested on: Rattus norvegicus; assay: Total plasma concentration in Sprague-Dawley rat at 10 mg/kg, po; type: ADME, organism-based; design: dose 10 mg/kg, route oral; settings: in vivo
[7] = tested on: Rattus norvegicus; assay: Plasma free concentration in Sprague-Dawley rat at 10 mg/kg, po; type: ADME, organism-based; design: dose 10 mg/kg, route oral; settings: in vivo
[8] = tested on: Rattus norvegicus; assay: Ex vivo receptor occupancy of CRF1 receptor in Sprague-Dawley rat brain at 10 mg/kg, po after 20 mins by autoradiography relative to [125I-tyrosine]sauvagine; type: functional

Sequence of Corticotropin releasing hormone receptor 2 (B8Q4Z9 whole entry): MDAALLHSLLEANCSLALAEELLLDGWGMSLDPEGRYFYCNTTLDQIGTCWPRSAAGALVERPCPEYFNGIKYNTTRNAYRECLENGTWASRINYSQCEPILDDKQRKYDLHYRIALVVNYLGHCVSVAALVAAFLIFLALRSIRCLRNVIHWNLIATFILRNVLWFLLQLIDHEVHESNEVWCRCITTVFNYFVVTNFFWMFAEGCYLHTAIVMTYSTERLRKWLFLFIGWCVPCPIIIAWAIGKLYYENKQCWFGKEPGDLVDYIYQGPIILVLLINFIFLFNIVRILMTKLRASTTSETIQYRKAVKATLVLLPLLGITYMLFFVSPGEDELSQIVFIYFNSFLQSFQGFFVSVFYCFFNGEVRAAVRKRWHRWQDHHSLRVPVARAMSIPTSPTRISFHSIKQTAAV

| CLint scaled at 1 µM [1] [mL/min/kg] | IC50 [2] [nM] | Compound | other results |
| --- | --- | --- | --- |
| 77 | 1.8 | CC[C@H](C1CC1)n1cc(Cl)nc(Nc2c(Cl)cc(OC(F)(F)F)cc2Cl)c1=O | – |
| 32 | 1.2 | CCOc1cc(C)c(Nc2nc(Cl)cn([C@H](C)C3CC3)c2=O)cc1C | – |
| – | 1.2 | COCC(COC)Nc1nc(C)nc2c(-c3ccc(Cl)cc3Cl)c(C)nn12 | Activity [3]: 61% |
| – | 7.9 | C[C@@H](C1CC1)n1cc(Cl)nc(Nc2c(Cl)cc(C(F)(F)F)cc2Cl)c1=O | – |
| 32 | 11 | COC[C@@H](C)n1cc(Cl)nc(Nc2c(Cl)cc(C(F)(F)F)cc2Cl)c1=O | – |
| – | 18 | C[C@H](C1CC1)n1cc(Cl)nc(Nc2c(Cl)cc(Cl)cc2C#N)c1=O | – |
| 44 | 1.2 | Cc1cc(Cl)cc(Cl)c1Nc1nc(Cl)cn([C@H](C)C2CC2)c1=O | – |
| 35 | 18 | COC[C@@H](C)n1cc(Cl)nc(Nc2c(Cl)cc(C#N)cc2Cl)c1=O | – |
| – | 63 | C[C@H](C1CC1)n1cc(Cl)nc(Nc2c(Cl)cc(S(C)(=O)=O)cc2Cl)c1=O | – |
| – | 36 | COc1cc(Cl)c(C)cc1Nc1nc(Cl)cn([C@H](C)C2CC2)c1=O | – |
| – | 120 | C[C@H](C1CC1)n1cc(Cl)nc(Nc2cc3c(cc2Cl)OCC3)c1=O | – |
| 160 | – | CC[C@H](C1CC1)n1cc(Cl)nc(Nc2c(Cl)cc(C#N)cc2Cl)c1=O | – |
| 100 | 15 | COc1cc(C)c(Nc2nc(Cl)cn([C@H](C)C3CC3)c2=O)cc1OC | – |
| 140 | 0.98 | Cc1cc(C)c(Nc2nc(Cl)cn([C@H](C)C3CC3)c2=O)c(Cl)c1 | – |
| 150 | 2.3 | CC[C@H](COC)n1cc(Cl)nc(Nc2c(Cl)cc(C(F)(F)F)cc2Cl)c1=O | – |
| 180 | – | Cc1cc(C)c(Nc2nc(Cl)cn([C@H](C)C3CC3)c2=O)c(C)c1 | – |
| 53 | 8.5 | COCC(COC)n1cc(Cl)nc(Nc2c(Cl)cc(C(F)(F)F)cc2Cl)c1=O | – |
| 340 | – | CC[C@H](C1CC1)n1cc(Cl)nc(Nc2c(C)cc(C)cc2C)c1=O | – |
| – | – | CC[C@H](C)[C@H](NC(=O)[C@@H](NC(=O)[C@H](CC(=O)O)NC(=O)[C@H](CC(C)C)NC(=O)[C@H](CC(C)C)NC(=O)[C@H](CC(C)C)NC(=O)[C@H](CCCNC(=N)N)NC(=O)[C@H](CC(N)=O)NC(=O)[C@H](CC(N)=O)NC(=O)[C@H](C)NC(=O)[C@H](C)NC(=O)[C@H](CCC(N)=O)NC(=O)[C@H](CCC(N)=O)NC(=O)[C@H](CCCCN)NC(=O)[C@H](CCC(=O)O)NC(=O)[C@H](CCCCN)NC(=O)[C@H](CCC(=O)O)NC(=O)[C@H](CCC(N)=O)NC(=O)[C@H](CCCCN)NC(=O)[C@H](CCC(=O)O)NC(=O)[C@@H](NC(=O)[C@H](CCC(=O)O)NC(=O)[C@@H](NC(=O)[C@H](CCSC)NC(=O)[C@H](CCCCN)NC(=O)[C@H](CCCNC(=N)N)NC(=O)[C@H](CC(C)C)NC(=O)[C@H](CC(C)C)NC(=O)[C@H](CCC(=O)O)NC(=O)[C@H](CC(C)C)NC(=O)[C@H](CO)NC(=O)[C@H](CC(C)C)NC(=O)[C@H](CC(=O)O)NC(=O)[C@@H](NC(=O)[C@H](CO)NC(=O)[C@@H](NC(=O)[C@@H]1CCCN1C(=O)[C@@H]1CCCN1C(=O)CNC(=O)[C@@H]1CCC(=O)N1)[C@@H](C)CC)[C@@H](C)CC)[C@@H](C)CC)[C@@H](C)CC)[C@@H](C)O)C(N)=O [SAUVAGINE] | IC50 [4]: 0.58 nM |
| 38 | 2.9 | Cc1cc(C#N)cc(Cl)c1Nc1nc(Cl)cn([C@H](C)C2CC2)c1=O | fraction unbound at 3 h [5]: 0.044; concentration [6]: 250 nM; Cp(f) [7]: 11 nM; Activity [8]: 34% |
